Usually melting point stands for the temperature, or range, at which the solid turns liquid.

17 compounds from patent US9371336B2, “Compounds for treating spinal muscular atrophy” (PTC Therapeutics Inc., priority 2012, dated 2016) can be followed below.

Where only a bound is given, the exact number is not on record here.

The subject of series [1] is SMN2 minigene mRNA (SMN2-A minigene construct). Description: SMN2 minigene mRNA splicing RT-qPCR assay in cultured cells. The series is classed as cell-based, human. The settings on record: Homo sapiens, HEK293-H; HEK293H cells stably transfected with SMN2-A minigene, 24 hours, 7-point concentration data; concentration giving 1.5-fold SMN2 full length mRNA relative to vehicle-treated cells; read-out: EC1.5x for production of full length SMN2 mRNA. An outline of the steps:
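Full-length SMN2 minigene mRNA, measured by exon 7/luciferase-specific RT-qPCR that excludes endogenous SMN1/SMN2, was normalized to GAPDH and expressed relative to vehicle-treated cells via modified ΔΔCt. Stably transfected HEK293H cells received compound (7-point, 3.16-fold series, duplicates) for 24 h at 37 °C.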
(In general: Quantitative PCR measures a nucleic acid by following its amplification.)

The test system of series [2] is Smn protein. Description: Smn protein assay (HTRF) in cultured cells (SMA patient fibroblasts GM03813). The series is classed as cell-based, human. To be noted: 48 hours; for EC1.5x for Smn protein expression: SMA patient fibroblast cells (GM03813), HTRF, 7-point concentration data, concentration producing 1.5 times Smn protein vs DMSO vehicle control; for maximum fold (Fold) increase of Smn protein: SMA patient fibroblast cells, 7-point concentration curve, relative to vehicle control. An outline of the steps: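 SMA patient fibroblasts (GM03813) were treated 48 h at 37° C with a 7-point, 3.16-fold compound series in triplicate, then lysed in RIPA. Smn was read by HTRF (anti-SMN d2/kryptate, 665/620 nm ratio). ΔF versus blank was divided by vehicle ΔF to give fold Smn increase.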

Turning to `C[C@@H]1CN(C)[C@@H](C)CN1c1ccc2cc(-c3cn4cccc(Cl)c4n3)c(=O)oc2n1` [Cpd 98, 3-(8-chloroimidazo[1,2-a]pyridin-2-yl)-7-[(2R,5S)-2,4,5-trimethylpiperazin-1-yl]-2H-pyrano [2,3-b]pyridin-2-one], the melting point fell in the range of 191 to 196 °C. In addition, the EC (1.5-fold) in series [1] is 0.1 to 0.3 µM. In series [2], the “EC1.5x for Smn protein expression” value was “** (an EC1.5× between >1 and ≦3 μM is indicated by two stars (**))”; the “maximum fold (Fold) increase of Smn protein” value (“maximum fold (Fold) increase” below) is “**** (a fold increase between >1.5 and ≦1.65 is indicated by four stars (****))”.
`Cc1ccc2nc(-c3cc4ccc(N5CCN(C)[C@H](C)C5)nc4oc3=O)cn2c1` [Cpd 75, 7-[(3R)-3,4-dimethylpiperazin-1-yl]-3-(6-methylimidazo[1,2-a]pyridin-2-yl)-2H-pyrano[2,3-b]pyridin-2-one] yielded a melting point of 247 to 251 °C. Further, in series [1], the EC (1.5-fold) lay within 0.1 to 0.3 µM. Moreover, in series [2], the “EC1.5x for Smn protein expression” value is “*** (an EC1.5× between >0.3 μM and ≦1 μM is indicated by three stars (***))”; the “maximum fold (Fold) increase” value is “**** (a fold increase between >1.5 and ≦1.65 is indicated by four stars (****))”.
The compound `Cc1cn2cc(-c3cc4ccc(N5C[C@H](C)N(C)C[C@H]5C)nc4oc3=O)nc2cn1` [Cpd 103, 3-(6-methylimidazo[1,2-a]pyrazin-2-yl)-7-[(2R,5S)-2,4,5-trimethylpiperazin-1-yl]-2H-pyrano[2,3-b]pyridin-2-one] registered a melting point of 248 to 250 °C. Besides, the EC (1.5-fold) in series [1] lay in the range of 0.1 to 0.3 µM. Also, in series [2], the “EC1.5x for Smn protein expression” value was “*** (an EC1.5× between >0.3 μM and ≦1 μM is indicated by three stars (***))”; the “maximum fold (Fold) increase” value is “**** (a fold increase between >1.5 and ≦1.65 is indicated by four stars (****))”.
On to `Cc1ccc2nc(-c3cc4ccc(N5CCN(C)[C@@H](C)C5)nc4oc3=O)cn2c1` [Cpd 74, 7-[(3S)-3,4-dimethylpiperazin-1-yl]-3-(6-methylimidazo[1,2-a]pyridin-2-yl)-2H-pyrano[2,3-b]pyridin-2-one], for which the melting point was 248 to 252 °C. The EC (1.5-fold) in series [1] was at most 0.1 µM. In series [2], the “EC1.5x for Smn protein expression” value is “*** (an EC1.5× between >0.3 μM and ≦1 μM is indicated by three stars (***))”; the “maximum fold (Fold) increase” value is “**** (a fold increase between >1.5 and ≦1.65 is indicated by four stars (****))”.
Turning to `CCN1CCN(c2ccc3cc(-c4cn5cc(C)ccc5n4)c(=O)oc3n2)CC1` [Cpd 130, 7-(4-ethylpiperazin-1-yl)-3-(6-methylimidazo[1,2-a]pyridin-2-yl)-2H-pyrano[2,3-b]pyridin-2-one], the melting point lay within 235 to 237 °C. For the same compound, the EC (1.5-fold) in series [1] lay in the range of 0.1 to 0.3 µM. Also, in series [2], the “EC1.5x for Smn protein expression” value is “* (An EC1.5× for Smn protein expression between >3 μM and ≦10 μM is indicated by one star (*))”; the “maximum fold (Fold) increase” value was “*** (a fold increase between >1.35 and ≦1.5 is indicated by three stars (***))”.
For `C[C@@H]1CN(c2ccc3cc(-c4cn5cccc(Cl)c5n4)c(=O)oc3n2)C[C@H](C)N1` [Cpd 77, 3-(8-chloroimidazo[1,2-a]pyridin-2-yl)-7-[(3R,5S)-3,5-dimethylpiperazin-1-yl]-2H-pyrano[2,3-b]pyridin-2-one], the melting point lay in the range of 240 to 242 °C. The EC (1.5-fold) in series [1] was at most 0.1 µM. Besides, in series [2], the “EC1.5x for Smn protein expression” value was “**** (an EC1.5×≦0.3 μM is indicated by four stars (****))” and the “maximum fold (Fold) increase” value is given as “***** (a fold increase >1.65 is indicated by five stars (*****))”.
The corresponding values for `C[C@@H]1CN(c2ccc3cc(-c4cn5cccnc5n4)c(=O)oc3n2)C[C@H](C)N1` [Cpd 78, 7-[(3R,5S)-3,5-dimethylpiperazin-1-yl]-3-(imidazo[1,2-a]pyrimidin-2-yl)-2H-pyrano[2,3-b]pyridin-2-one] are 255 to 258 °C, 0.1 to 0.3 µM, “**** (an EC1.5×≦0.3 μM is indicated by four stars (****))” and “***** (a fold increase >1.65 is indicated by five stars (*****))”.
The compound `Cc1cc(F)c2nc(-c3cc4ccc(N5C[C@H](C)NC[C@H]5C)nc4oc3=O)cn2c1` [Cpd 122, 7-[(2R,5S)-2,5-dimethylpiperazin-1-yl]-3-(8-fluoro-6-methylimidazo[1,2-a]pyridin-2-yl)-2H-pyrano[2,3-b]pyridin-2-one] returned a melting point of 195 to 198 °C. Besides, the EC (1.5-fold) in series [1] was at most 0.1 µM. Moreover, in series [2], the “EC1.5x for Smn protein expression” value is “**** (an EC1.5×≦0.3 μM is indicated by four stars (****))”; the “maximum fold (Fold) increase” value is “**** (a fold increase between >1.5 and ≦1.65 is indicated by four stars (****))”.
`C[C@@H]1CN(c2ccc3cc(-c4cn5ccccc5n4)c(=O)oc3n2)C[C@H](C)N1` [Cpd 60, 7-[(3R,5S)-3,5-dimethylpiperazin-1-yl]-3-(imidazo[1,2-a]pyridin-2-yl)-2H-pyrano[2,3-b]pyridin-2-one]: the melting point was 283 to 285 °C. Also, the EC (1.5-fold) in series [1] is at most 0.1 µM. Further, in series [2], the “EC1.5x for Smn protein expression” value was “** (an EC1.5× between >1 and ≦3 μM is indicated by two stars (**))”; the “maximum fold (Fold) increase” value was “*** (a fold increase between >1.35 and ≦1.5 is indicated by three stars (***))”.
With `C[C@@H]1CN(c2ccc3cc(-c4cn5ccccc5n4)c(=O)oc3n2)CCN1C` [Cpd 82, 7-[(3R)-3,4-dimethylpiperazin-1-yl]-3-(imidazo[1,2-a]pyridin-2-yl)-2H-pyrano[2,3-b]pyridin-2-one], the melting point lay within 216 to 219 °C. Further, in series [1], the EC (1.5-fold) lay within 0.1 to 0.3 µM. Moreover, in series [2], the “EC1.5x for Smn protein expression” value was “*** (an EC1.5× between >0.3 μM and ≦1 μM is indicated by three stars (***))”; the “maximum fold (Fold) increase” value is “**** (a fold increase between >1.5 and ≦1.65 is indicated by four stars (****))”.
`Cc1ccn2cc(-c3cc4ccc(N5C[C@@H](C)N[C@@H](C)C5)nc4oc3=O)nc2n1` [Cpd 99, 7-[(3R,5S)-3,5-dimethylpiperazin-1-yl]-3-(7-methylimidazo[1,2-a]pyrimidin-2-yl)-2H-pyrano[2,3-b]pyridin-2-one] registered a melting point of 270 to 273 °C. For the same compound, in series [1], the EC (1.5-fold) was in the range of 0.1 to 0.3 µM. In addition, the “maximum fold (Fold) increase” value in series [2] was “*** (a fold increase between >1.35 and ≦1.5 is indicated by three stars (***))”.
Turning to `CN1CCN(c2ccc3cc(-c4cn5cccc(Cl)c5n4)c(=O)oc3n2)CC1` [Cpd 111, 3-(8-chloroimidazo[1,2-a]pyridin-2-yl)-7-(4-methylpiperazin-1-yl)-2H-pyrano[2,3-b]pyridin-2-one], the melting point lay in the range of 256 to 259 °C. Further, the EC (1.5-fold) in series [1] is at most 0.1 µM. For the same compound, in series [2], the “EC1.5x for Smn protein expression” value is listed as “**** (an EC1.5×≦0.3 μM is indicated by four stars (****))”; the “maximum fold (Fold) increase” value is “*** (a fold increase between >1.35 and ≦1.5 is indicated by three stars (***))”.
Compound `CCN1CCCN(c2ccc3cc(-c4cn5cccc(F)c5n4)c(=O)oc3n2)CC1` [Cpd 139, 7-(4-ethyl-1,4-diazepan-1-yl)-3-(8-fluoroimidazo[1,2-a]pyridin-2-yl)-2H-pyrano[2,3-b]pyridin-2-one] registered a melting point of 189 to 191 °C. Besides, the EC (1.5-fold) in series [1] is at most 0.1 µM. In series [2], the “EC1.5x for Smn protein expression” value is “**** (an EC1.5×≦0.3 μM is indicated by four stars (****))”; the “maximum fold (Fold) increase” value is “**** (a fold increase between >1.5 and ≦1.65 is indicated by four stars (****))”.
As to `CC(C)N1CCN(c2ccc3cc(-c4nc5c(Cl)cccc5s4)c(=O)oc3n2)CC1` [Cpd 23, 3-(4-chloro-1,3-benzothiazol-2-yl)-7-[4-(propan-2-yl)piperazin-1-yl]-2H-pyrano[2,3-b]pyridin-2-one], the melting point was in the range of 230 to 234 °C. In addition, in series [1], the EC (1.5-fold) lay within 0.3 to 1 µM. In series [2], the “maximum fold (Fold) increase” value was “** (a fold increase between >1.2 and ≦1.35 is indicated by two stars (**))”.
As to `Cc1csc(-c2cc3ccc(N4CCNCC4)nc3oc2=O)n1.Cl` [Cpd 15, 3-(4-methyl-1,3-thiazol-2-yl)-7-(piperazin-1-yl)-2H-pyrano[2,3-b]pyridin-2-one hydrochloride], the melting point lay in the range of 238 to 242 °C. Further, the EC (1.5-fold) in series [1] lay within 3 to 30 µM. Moreover, the “maximum fold (Fold) increase” value in series [2] was “** (a fold increase between >1.2 and ≦1.35 is indicated by two stars (**))”.
The compound `CCN1CCN(c2ccc3cc(-c4nc5c(Cl)cccc5s4)c(=O)oc3n2)CC1` [Cpd 12, 3-(4-chloro-1,3-benzothiazol-2-yl)-7-(4-ethylpiperazin-1-yl)-2H-pyrano[2,3-b]pyridin-2-one] registered a melting point of 266 to 269 °C. Moreover, the EC (1.5-fold) in series [1] is 0.3 to 1 µM. The “maximum fold (Fold) increase” value in series [2] is “*** (a fold increase between >1.35 and ≦1.5 is indicated by three stars (***))”.
For `Cl.O=c1oc2nc(N3CCCNCC3)ccc2cc1-c1cn2cccc(F)c2n1` [Cpd 46, 7-(1,4-diazepan-1-yl)-3-(8-fluoroimidazo[1,2-a]pyridin-2-yl)-2H-pyrano[2,3-b]pyridin-2-one hydrochloride], the melting point lay within 267 to 269 °C. Also, the EC (1.5-fold) in series [1] was at most 0.1 µM. Besides, in series [2], the “EC1.5x for Smn protein expression” value is “**** (an EC1.5×≦0.3 μM is indicated by four stars (****))”; the “maximum fold (Fold) increase” value is “**** (a fold increase between >1.5 and ≦1.65 is indicated by four stars (****))”.
